{
  "source": "patent US11684599B2",
  "about": "“Very-long-chain polyunsaturated fatty acids, elovanoid hydroxylated derivatives, and methods of use” (Board of Supervisors of Louisiana State University and …, priority 2017, dated 2023)",
  "key": {"ARPE-19 cells under UOS": {"tested_on": "ARPE-19 cells under UOS", "assay": "Western blot of pro-survival and pro-apoptotic proteins in RPE cells under UOS", "format": "cell-based, human", "details": "for pro-apoptotic protein Bax / pro-apoptotic protein Bid / pro-apoptotic protein Bim: ARPE-19 cells under UOS; for SIRT1 expression: RPE under UOS; for Prohibitin (type-1) expression: concentration-dependent (100 and 250 nM); for Sirtuin1 (SIRT1) expression: dose-dependent, 100-200 nM", "method": "ARPE19 cells at 75-80% confluence (72 h growth in DMEM/F12+10% FBS) in 6-well plates were serum-starved for 8 h before exposure. The serum-starved cells were treated with TNF-α (Sigma-Aldrich, St. Louis, Mo.) (10 ng/ml) and H2O2 (600 μM) to induce oxidative stress and challenged with increasing concentrations (50-500 nM) of VLC-PUFA (C32:6n3 and C34:6n3) simultaneously with oxidative stress for 16 h (apoptosis) and 6 h (Western-blot) before detection of apoptosis and harvesting for protein analysis. In some experiments, DHA at a concentration of 100 nM and 15-LOX-1 inhibitor PD146176 at a concentration of 1 μM was added to treat the RPE cells under stress. Cell extracts were made and protein concentrations adjusted by Bio-Rad (Hercules, Calif.) protein reagent and used for Western blot analysis.\nBcl-2 family proteins, SIRT1 and Proinhibitin (type-1), and Iduna proteins were analyze by Western blot analysis. In brief, 20-25 μg equivalents of each cell extracts were subject to electrophoresis on a 4-12% gel (Promega) at 125 V for 2 h. The proteins were transferred to nitrocellulose membrane by I-blot transfer apparatus. The membranes were subjected to treatment with primary antibodies specific for Bcl-2, Bcl-xL, Bax, Bid, Bim, SIRT1 and Prohibitin (type-1) (Santa Cruz Biotechnology) and Iduna antibody (Neuro-Mab Lab, UCLA, Los Angeles, Calif.) overnight at 4° C. and probed for 45 mins with secondary antibody, goat anti-mouse Ig:horseradish peroxidase, and horseradish peroxidase-conjugated anti-biotin antibody, and then proteins were evaluated by using an ECL kit (Amersham)."}, "[1]": {"tested_on": "rats with middle cerebral artery occlusion (MCAo)", "assay": "Ex vivo MRI (T2WI) lesion, core and penumbra volumes after MCAo", "format": "in vivo, rat", "details": "day 7, compared to CSF-treated group", "method": "(§1) Male Sprague-Dawley rats (Charles River Lab., Wilmington, Mass.) weighing 280-340 g were fasted overnight but allowed free access to water. Atropine sulfate (0.5 mg/kg, i.p.) was injected 10 mins before anesthesia. Anesthesia was induced with 3% isoflurane in a mixture of 70% nitrous oxide and 30% oxygen. All rats were orally intubated and mechanically ventilated. During ventilation, the animals were paralyzed with pancuronium bromide (0.6 mg/kg, i.p.). The catheters were implanted into the right femoral artery and vein for the blood sampling and infusion of drug. Serial analyses of arterial blood gases, plasma glucose, arterial blood pressure and heart beating rate were conducted before and during surgical procedure. Rectal (CMA/150 Temperature Controller, CMA/Microdialysis AB, Stockholm, Sweden) and cranial (temporalis muscle; Omega Engineering, Stamford, Conn.) temperatures were closely monitored before, during and after MCAo. Rectal temperature and body weight were monitored daily until sacrifice.\n(§2) Rats underwent 2 h of right middle cerebral artery occlusion (MCAo) by an intraluminal-filament. In brief, the right common carotid artery (CCA) bifurcation was exposed through a midline neck incision and the occipital artery branches of the external carotid artery were isolated, ligated and dissected. After careful isolation of the internal carotid artery (ICA), a 3-0 monofilament coated with poly-L-lysine was advanced through the ICA to the MCA until mild resistance was felt. The neck incision was closed with a silk suture and the animals were then allowed to recover. After 2 h of MCAo, rats were re-anesthetized with the same anesthetic combination. Temperature probes were re-inserted, and intraluminal sutures were carefully removed. The animals given free access to food and water for 7 days.\n(§3) Thirty minutes after suture removal, a brain infusion cannula was implanted into the right lateral ventricle for treatment administration in each rat. Rats were anesthetized with 3% isoflurane and were secured to a stereotaxic apparatus with skull leveled between bregma and lambda. A sterile stainless steel cannula (5-mm long) was implanted into the lateral ventricle using the stereotaxic coordinates (0.2 mm caudal to bregma, 2 mm lateral to midline, and 5 mm below the dura). Cannulas were removed after treatment was completed.\nElovanoids (ELV) as sodium salts (Na) or methyl esters (Me) were dissolved in artificial cerebral spinal fluid (CSF) and administered into right lateral ventricle 1 hour after 2 h of MCAo. The following ELVs were used: ELV-N32-Na, ELV-N32-Me, ELV-N34-Na and ELV-N34-Me (5 μg/[…]) or CSF (50 μl). All treatments were administered by a researcher blinded to the treatment groups. […]"}, "[2]": {"tested_on": "rats with middle cerebral artery occlusion (MCAo)", "assay": "Immunohistochemistry (NeuN, GFAP, SMI-71, IgG) after MCAo", "format": "in vivo, rat", "details": "for IgG staining intensity / IgG staining in the cortex: 7 days; for IgG staining intensity: compared with CSF-treated group; for IgG immunoreactivity in subcortex / IgG immunoreactivity in whole hemisphere (total): versus the vehicle group", "method": "as §1, §2, §3\nElovanoids (ELV) as sodium salts (Na) or methyl esters (Me) were dissolved in artificial cerebral spinal fluid (CSF) and administered into right lateral ventricle 1 hour after 2 h of MCAo. The following ELVs were used: ELV-N32-Na, ELV-N32-Me, ELV-N34-Na and ELV-N34-Me (5 μg/[…]) or CSF (50 μl). All treatments were administered by a researcher blinded to the treatment groups.\nBrain edema was measured by the differences of ipsi- and contra-lateral hemispheres. Immunohistochemical procedures were performed on the adjacent sections to identify specific vascular and neuronal elements in the ischemic core and penumbra. The following antibodies were used: rat blood-brain barrier (SMI-71, BioLegend, San Diego, Calif.) as a vascular marker; glial fibrillary acid protein (GFAP, Agilent Tech. Santa Clara, Calif.) to label reactive astrocytes; and neuron-specific nuclear protein (NeuN, Chemicon/Millipore, Billerica, Mass.) and biotinylated anti-rat immunoglobulin (IgG) antibody (BioLegend, San Diego, Calif.) to detect BBB breakdown. The number of positive cells and immunopositive vessels were counted in the cortex and striatum at the level of the central lesion (bregma level −0.3 mm). Data were expressed as numbers of positive cells and vessels per high-power microscopic field (magnification ×40).\nThe images of sections were obtained using confocal laser microscope (LSM510, Carl Zeiss MicroImaging, Irvine, Calif.) following specific experimental protocols. The images were acquired with dimension 212.3 μm×212.3 μm using Zen software (Carl Zeiss MicroImaging). Image analysis was conducted using ImageJ software. […]"}},
  "data": [
    {"smiles": "CC/C=C\\C/C=C\\C/C=C\\C/C=C\\C/C=C\\C/C=C\\CCCCCCCCCCCCC(=O)O", "note": "[32:6n3, (14Z,17Z,20Z,23Z,26Z,29Z)-dotriaconta-14,17,20,23,26,29-hexaenoic acid]", "values": [
      {"measurement": "anti-apoptotic protein Bcl-2", "setting": "ARPE-19 cells under UOS; RPE cells under UOS", "value": "upregulate"},
      {"measurement": "anti-apoptotic protein Bcl-xL", "setting": "ARPE-19 cells under UOS; RPE cells under UOS", "value": "upregulate"},
      {"measurement": "pro-apoptotic protein Bax", "setting": "ARPE-19 cells under UOS; VLC-PUFA", "value": "down regulated"},
      {"measurement": "pro-apoptotic protein Bid", "setting": "ARPE-19 cells under UOS; VLC-PUFA", "value": "down regulated"},
      {"measurement": "pro-apoptotic protein Bim", "setting": "ARPE-19 cells under UOS; VLC-PUFA", "value": "down regulated"},
      {"measurement": "Iduna expression", "setting": "ARPE-19 cells under UOS; VLC-PUFA, RPE cells under UOS", "value": "upregulation"},
      {"measurement": "SIRT1 expression", "setting": "ARPE-19 cells under UOS; VLC-PUFA", "value": "upregulation"},
      {"measurement": "Prohibitin (type-1) expression", "setting": "ARPE-19 cells under UOS; VLC-PUFA", "value": "upregulation"}
    ]},
    {"smiles": "CC/C=C\\C/C=C\\C/C=C\\C/C=C\\C/C=C\\C/C=C\\CCCCCCCCCCCCCCC(=O)O", "note": "[34:6n3, (16Z,19Z,22Z,25Z,28Z,31Z)-tetratriaconta-16,19,22,25,28,31-hexaenoic acid]", "values": [
      {"measurement": "anti-apoptotic protein Bcl-2", "setting": "ARPE-19 cells under UOS; RPE cells under UOS", "value": "upregulate"},
      {"measurement": "anti-apoptotic protein Bcl-xL", "setting": "ARPE-19 cells under UOS; RPE cells under UOS", "value": "upregulate"},
      {"measurement": "pro-apoptotic protein Bax", "setting": "ARPE-19 cells under UOS; VLC-PUFA", "value": "down regulated"},
      {"measurement": "pro-apoptotic protein Bid", "setting": "ARPE-19 cells under UOS; VLC-PUFA", "value": "down regulated"},
      {"measurement": "pro-apoptotic protein Bim", "setting": "ARPE-19 cells under UOS; VLC-PUFA", "value": "down regulated"},
      {"measurement": "Iduna expression", "setting": "ARPE-19 cells under UOS; VLC-PUFA, RPE cells under UOS", "value": "upregulation"},
      {"measurement": "SIRT1 expression", "setting": "ARPE-19 cells under UOS; VLC-PUFA", "value": "upregulation"},
      {"measurement": "Prohibitin (type-1) expression", "setting": "ARPE-19 cells under UOS; VLC-PUFA", "value": "upregulation"}
    ]},
    {"smiles": "CC/C=C\\C[C@H](O)\\C=C/C=C/C=C/[C@H](O)C/C=C\\C/C=C\\CCCCCCCCCCCCC(=O)OC", "note": "[ELV-N32-Me, methyl (14Z,17Z,20R,21E,23E,25Z,27S,29Z)-20,27-dihydroxydotriaconta-14,17,21,23,25,29-hexaenoate]", "values": [
      {"measurement": "reduction of total lesion volume", "setting": "[1]", "value": 56, "unit": "%"},
      {"measurement": "IgG staining intensity", "setting": "[2]", "value": "similar"}
    ]},
    {"smiles": "CC/C=C\\C[C@H](O)\\C=C/C=C/C=C/[C@H](O)C/C=C\\C/C=C\\CCCCCCCCCCCCC(=O)[O-].[Na+]", "note": "[ELV-N32-Na, sodium (14Z,17Z,20R,21E,23E,25Z,27S,29Z)-20,27-dihydroxydotriaconta-14,17,21,23,25,29-hexaenoate]", "values": [
      {"measurement": "Iduna expression", "setting": "ARPE-19 cells under UOS; 200 nM", "value": "enhanced Iduna expression"},
      {"measurement": "relative potency in upregulating SIRT1", "setting": "ARPE-19 cells under UOS; ELV-N32-Na versus ELV-N34-Na", "value": "more potent than ELV-N34-Na"},
      {"measurement": "anti-apoptotic protein Bcl-2", "setting": "ARPE-19 cells under UOS; RPE cells under UOS", "value": "enhanced the abundance"},
      {"measurement": "anti-apoptotic protein Bcl-xL", "setting": "ARPE-19 cells under UOS; RPE cells under UOS", "value": "enhanced the abundance"},
      {"measurement": "Sirtuin1 (SIRT1) expression", "setting": "ARPE-19 cells under UOS", "value": "upregulate"},
      {"measurement": "reduction of total lesion volume", "setting": "[1]", "value": 60, "unit": "%"},
      {"measurement": "IgG staining intensity", "setting": "[2]", "value": "similar"}
    ]},
    {"smiles": "CC/C=C\\C[C@H](O)\\C=C/C=C/C=C/[C@H](O)C/C=C\\C/C=C\\CCCCCCCCCCCCCCC(=O)OC", "note": "[ELV-N34-Me, methyl (16Z,19Z,22R,23E,25E,27Z,29S,31Z)-22,29-dihydroxytetratriaconta-16,19,23,25,27,31-hexaenoate]", "values": [
      {"measurement": "reduction of total lesion volume", "setting": "[1]", "value": 91, "unit": "%"},
      {"measurement": "IgG staining in the cortex", "setting": "[2]", "value": "significantly less IgG staining"},
      {"measurement": "IgG immunoreactivity in subcortex", "setting": "[2]", "value": "significantly reduced"},
      {"measurement": "IgG immunoreactivity in whole hemisphere (total)", "setting": "[2]", "value": "significantly reduced"}
    ]},
    {"smiles": "CC/C=C\\C[C@H](O)\\C=C/C=C/C=C/[C@H](O)C/C=C\\C/C=C\\CCCCCCCCCCCCCCC(=O)[O-].[Na+]", "note": "[ELV-N34-Na, sodium (16Z,19Z,22R,23E,25E,27Z,29S,31Z)-22,29-dihydroxytetratriaconta-16,19,23,25,27,31-hexaenoate]", "values": [
      {"measurement": "Iduna expression", "setting": "ARPE-19 cells under UOS; 200 nM", "value": "enhanced Iduna expression"},
      {"measurement": "anti-apoptotic protein Bcl-2", "setting": "ARPE-19 cells under UOS; RPE cells under UOS", "value": "enhanced the abundance"},
      {"measurement": "anti-apoptotic protein Bcl-xL", "setting": "ARPE-19 cells under UOS; RPE cells under UOS", "value": "enhanced the abundance"},
      {"measurement": "Sirtuin1 (SIRT1) expression", "setting": "ARPE-19 cells under UOS", "value": "upregulate"},
      {"measurement": "reduction of total lesion volume", "setting": "[1]", "value": 99, "unit": "%"},
      {"measurement": "IgG staining in the cortex", "setting": "[2]", "value": "significantly less IgG staining"},
      {"measurement": "IgG immunoreactivity in subcortex", "setting": "[2]", "value": "significantly reduced"},
      {"measurement": "IgG immunoreactivity in whole hemisphere (total)", "setting": "[2]", "value": "significantly reduced"}
    ]}
  ]
}
